Data on 28 compounds can be found in ChEMBL document CHEMBL6114966, “Discovery of maleimide derivatives as m6A demethylase ALKBH5 inhibitors” (Bioorg Med Chem, 2025).

Activity calls are given as the source filed them. The rule behind the calls is not given here.

Assay [1] addresses T1, RNA demethylase ALKBH5 (Homo sapiens, UniProt Q6P6C2). Kind of assay: Inhibition of ALKBH5 (unknown origin) using 5'-ATTGTCA(m6A)CAGCAGA-FAM-3' as substrate measured after 30 mins by fluorescence polarization assay. In general terms: In fluorescence polarisation assays a small probe gives low polarisation when free and higher when bound to something large.
In assay [2] the target is T1, RNA demethylase ALKBH5. As to the kind of experiment: Inhibition of ALKBH5 (unknown origin) at 20 to 100 uM using 5'-TAGACATTGCCATTCTCGATAGG (m6A) TCCGGTCAAACCTAGAC GAATTCCA-3' as substrate measured after 2 hrs in presence of 2-OG by PAGE based restriction enzyme digestion assay. Conditions: dose 20-100 µM.
The target of assay [3] is T1, RNA demethylase ALKBH5. Kind of assay: Inhibition of ALKBH5 (unknown origin) using 5'-TAGACATTGCCATTCTCGATAGG (m6A) TCCGGTCAAACCTAGAC GAATTCCA-3' as substrate measured after 2 hrs in presence of 2-OG by PAGE based restriction enzyme digestion assay.
The target in assay [4] is T1, RNA demethylase ALKBH5. Kind of assay: Binding affinity to ALKBH5 (unknown origin) assessed as change in melting temperature at 100 uM measured after 30 mins by thermal shift assay.
Assay [5] deals with T1, RNA demethylase ALKBH5. As to the kind of experiment: Binding affinity to ALKBH5 (unknown origin) assessed as change in melting temperature at 25 uM measured after 30 mins by thermal shift assay.
For assay [6], the target named is T1, RNA demethylase ALKBH5. Kind of assay: Binding affinity to ALKBH5 (unknown origin) assessed as change in melting temperature at 50 uM measured after 30 mins by thermal shift assay.
For assay [7], the target named is T1, RNA demethylase ALKBH5. Kind of assay: Inhibition of ALKBH5 in human MV4-11 cells assessed as upregulation of p21 mRNA expression measured after 48 hrs by RT-qPCR analysis. The assay is classed as cell-based. The settings on record: dose 10-40 µM.
Assay [8] concerns the target T1, RNA demethylase ALKBH5. As to the kind of experiment: Binding affinity to ALKBH5 (unknown origin) by 1H NMR STD analysis.
Assay [9] concerns the target T2, Alpha-ketoglutarate-dependent dioxygenase FTO (Homo sapiens, UniProt Q9C0B1). Kind of assay: Inhibition of FTO (unknown origin) using 5'-TAGACATTGCCATTCTCGATAGG (m6A) TCCGGTCAAACCTAGAC GAATTCCA-3' as substrate measured after 2 hrs in presence of 2-OG by PAGE based restriction enzyme digestion assay.
The target in assay [10] is T1, RNA demethylase ALKBH5. As to the kind of experiment: Inhibition of ALKBH5 in human MV4-11 cells assessed as down regulation of TACC3 mRNA expression measured after 48 hrs by RT-qPCR analysis. The settings on record: dose 10-40 µM. The assay is classed as cell-based. Background: Quantitative PCR measures a nucleic acid by following its amplification.
The next assay concerns MV4-11. Kind of assay: Antiproliferative activity against human MV4-11 cells assessed as reduction in cell viability measured after 72 hrs by CellTiter-Lumi luminescence assay. The format is functional, cell-based. Conditions: MV4-11, 72 h.
For assay [11], the target named is T2, Alpha-ketoglutarate-dependent dioxygenase FTO. Kind of assay: Inhibition of FTO (unknown origin) at 25 to 200 uM using 5'-TAGACATTGCCATTCTCGATAGG (m6A) TCCGGTCAAACCTAGAC GAATTCCA-3' as substrate measured after 2 hrs in presence of varying levels of 2-OG by PAGE based restriction enzyme digestion assay. Conditions: dose 25-200 µM.
In assay [12] the target is T1, RNA demethylase ALKBH5. Kind of assay: Inhibition of ALKBH5 in human MV4-11 cells assessed as increase in intracellular m6A level by dot blot assay. Conditions: dose 20-40 µM. The assay is classed as cell-based.
The target of assay [13] is T1, RNA demethylase ALKBH5. As to the kind of experiment: Inhibition of ALKBH5 in human MV4-11 cells assessed as down regulation of AXL mRNA expression measured after 48 hrs by RT-qPCR analysis. The format is cell-based. The settings on record: dose 10-40 µM.
The target of assay [14] is T1, RNA demethylase ALKBH5. As to the kind of experiment: Inhibition of ALKBH5 in human MV4-11 cells assessed as down regulation of TACC3 expression measured after 48 hrs by Western blot analysis. The assay is classed as cell-based. The settings on record: dose 5-40 µM. Background: In western blotting, separated proteins are transferred to a membrane and probed.

On to `O=C(O)c1ccccc1NC1=C(Cl)C(=O)N(c2cccc(I)c2)C1=O`, for which the IC50 (as a rule, the point on the concentration scale where inhibition reaches its midpoint) against RNA demethylase ALKBH5 [1] turned out to be 37 µM.
For `O=C(O)c1ccccc1NC1=C(Cl)C(=O)N(c2ccc(C(F)(F)F)c(Br)c2)C1=O`, at RNA demethylase ALKBH5 [2], the inhibition entry was “Active”. For the same compound, the results for the IC50 against RNA demethylase ALKBH5 [1] and on RNA demethylase ALKBH5 [3] were 16.9 µM and 25.9 µM, respectively.
In the case of `Cc1ccc(Br)cc1N1C(=O)C(Cl)=C(Nc2ccccc2C(=O)O)C1=O`, the IC50 at RNA demethylase ALKBH5 [1] was greater than 200 µM.
Consider `C#Cc1cccc(N2C(=O)C(Cl)=C(Nc3ccccc3C(=O)O)C2=O)c1`, for which the IC50 against RNA demethylase ALKBH5 [1] is greater than 200 µM.
Consider `O=C(O)c1ccccc1NC1=C(Cl)C(=O)N(c2cccc(O)c2)C1=O`, for which, at RNA demethylase ALKBH5 [1], the IC50 is greater than 200 µM.
Take `O=C(O)c1ccccc1NC1=C(Cl)C(=O)N(c2cccc(Br)c2)C1=O`: 21.3 µM corresponded to half-maximal inhibition at RNA demethylase ALKBH5 [1] (IC50).
Same read-out and setting: then `CC(=O)c1ccc(N2C(=O)C(Cl)=C(Nc3ccccc3C(=O)O)C2=O)cc1`, with 34.1 µM.
At RNA demethylase ALKBH5 [1], `O=C(O)c1ccccc1NC1=C(Cl)C(=O)N(c2ccccc2Cl)C1=O` gave an IC50 of 47.8 µM.
With `O=C1C(Cl)=C(Nc2ccccc2)C(=O)N1c1ccc(Cl)c(Cl)c1`, the figures for the IC50 against RNA demethylase ALKBH5 [1] and at RNA demethylase ALKBH5 [3] were 45.4 µM and less than 100 µM, respectively. The ΔTm (in general, the shift of the melting midpoint relative to a reference) is -2.4 °C at RNA demethylase ALKBH5 [4], -1.2 °C at RNA demethylase ALKBH5 [5] and -1.3 °C at RNA demethylase ALKBH5 [6].
`N#Cc1ccc(N2C(=O)C(Cl)=C(Nc3ccccc3C(=O)O)C2=O)cc1Br` had an IC50 against RNA demethylase ALKBH5 [1] of 18.7 µM.
Regarding `Cc1cc(N2C(=O)C(Cl)=C(Nc3ccccc3C(=O)O)C2=O)ccc1C(F)(F)F`, at RNA demethylase ALKBH5 [1], the IC50 is greater than 200 µM.
Regarding `O=C(O)c1ccccc1NC1=C(Cl)C(=O)N(c2ccc(I)c(Cl)c2)C1=O`, the inhibition entry at RNA demethylase ALKBH5 [7], on RNA demethylase ALKBH5 [10], on RNA demethylase ALKBH5 [12], at RNA demethylase ALKBH5 [13] and at RNA demethylase ALKBH5 [14] was “Dose-dependent-effect” in each case. The result on RNA demethylase ALKBH5 [8] was Active. Also, the IC50 in assay [9] was greater than 250 µM; against RNA demethylase ALKBH5 [1] it was 2.32 µM; with MV4-11 it was 31.5 µM; at RNA demethylase ALKBH5 [3], 11.2 µM. Also, the inhibition entry (on RNA demethylase ALKBH5 [2]; in [11]) was “Active” each time.
For `Cc1ccc(N2C(=O)C(Cl)=C(Nc3ccccc3C(=O)O)C2=O)cc1Br`, inhibition against RNA demethylase ALKBH5 [1] was half-maximal at 32.9 µM (IC50).
In turn, `O=C(O)c1ccc(F)cc1NC1=C(Cl)C(=O)N(c2ccc(Br)c(Br)c2)C1=O` displayed an IC50 against RNA demethylase ALKBH5 [1] of 5.34 µM.
With `N#Cc1ccc(Br)cc1N1C(=O)C(Cl)=C(Nc2ccccc2C(=O)O)C1=O`, it took 69.1 µM to reach half-maximal inhibition against RNA demethylase ALKBH5 [1] (IC50).
The same measure, in the same setting: then `COC(=O)c1cccc(NC2=C(Cl)C(=O)N(c3ccc(Cl)c(Cl)c3)C2=O)c1`, with greater than 200 µM; and `N#Cc1ccc(N2C(=O)C(Cl)=C(Nc3ccccc3C(=O)O)C2=O)cc1`, with greater than 200 µM; and `Cc1ccc(C(=O)O)c(NC2=C(Cl)C(=O)N(c3ccc(Br)c(Br)c3)C2=O)c1`, with greater than 200 µM.
In turn, `O=C(O)c1ccccc1NC1=C(Cl)C(=O)N(c2ccc([N+](=O)[O-])c(Br)c2)C1=O` gave an IC50 against RNA demethylase ALKBH5 [1] of 16.5 µM.
As to `COc1ccc(N2C(=O)C(Cl)=C(Nc3ccccc3C(=O)O)C2=O)cc1`, the IC50 against RNA demethylase ALKBH5 [1] was greater than 200 µM.
In turn, `NS(=O)(=O)c1cccc(NC2=C(Cl)C(=O)N(c3ccc(Cl)c(Cl)c3)C2=O)c1` showed an IC50 against RNA demethylase ALKBH5 [1] greater than 200 µM.
Take `Cc1cc([N+](=O)[O-])c(Br)cc1N1C(=O)C(Cl)=C(Nc2ccccc2C(=O)O)C1=O`: the IC50 on RNA demethylase ALKBH5 [1] was greater than 200 µM.
At RNA demethylase ALKBH5 [1], `O=C(O)c1ccccc1NC1=C(Cl)C(=O)N(c2ccc(O)cc2)C1=O` had an IC50 greater than 200 µM.
For the compound `O=C(O)c1ccccc1NC1=C(Cl)C(=O)N(c2cccc(Cl)c2)C1=O`, the IC50 on RNA demethylase ALKBH5 [1] worked out at 29.6 µM.
`O=C(O)c1ccccc1NC1=C(Cl)C(=O)N(c2ccc(Br)c(Br)c2)C1=O` came in with an IC50 against RNA demethylase ALKBH5 [1] of 17.4 µM.
Consider `N#Cc1cc(C(F)(F)F)ccc1N1C(=O)C(Cl)=C(Nc2ccccc2C(=O)O)C1=O`, for which the IC50 against RNA demethylase ALKBH5 [1] was greater than 200 µM.
Consider `O=C(O)c1ccccc1NC1=C(Cl)C(=O)N(c2ccc(I)c(Br)c2)C1=O`, for which the IC50 against RNA demethylase ALKBH5 [1] worked out at 9.57 µM.
Turning to `O=C(O)c1ccccc1NC1=C(Cl)C(=O)N(c2ccc(Cl)c(Cl)c2)C1=O`, the IC50 on RNA demethylase ALKBH5 [1] was determined as 20.6 µM.
